Test results reported in patent publication US9029410B2, “Pharmaceutical compositions for the treatment of movement disorders” (Sarah Herzog Memorial Hospital Ezrath Nashim Association, priority 2003, dated 2015).

Tests used:
monkeys = settings: NR2A antagonist; cited from earlier work
patients = settings: Tsai and Coyle '875; low baseline levels; cited from earlier work
Sprague-Dewley rats = assay: Effects of chronic haloperidol treatment on motor activity; type: in vivo, rat
Protocol: Rats were weighed biweekly throughout the study. Room temperature was maintained at 22±2° C.

[1] = tested on: neuroleptic sensitized monkeys; settings: cited from earlier work

Q: For `N[C@H](CC(=O)CP(=O)(O)O)C(=O)O` [MDL 100,453], which “Effect on symptoms of dyskinesia” value (monkeys) is on record?
A: worsening symptoms of dyskinesia

Q: Which “Changes in SAS or AIMS scores” value (patients) does the source give for `CNCC(=O)O` [N-methylglycine] here?
A: no significant changes

Q: What does the source list for `CCCCCCCCCC(=O)OC1(c2ccc(Cl)cc2)CCN(CCCC(=O)c2ccc(F)cc2)CC1` [haloperidol, haloperidol decanoate]?
A: Number of VCM episodes relative to rats that had received placebo (Sprague-Dewley rats; haloperidol decanoate i.m. every four weeks, 24 weeks, p<0.001): approximately 4 fold; Mean time spent in immobility (Sprague-Dewley rats; haloperidol for 24 weeks, 5 minute observation interval, placebo 53.0±12.7): 103.2 ± 7.8 s; Number of rearing episodes vs placebo (Sprague-Dewley rats; haloperidol for 24 weeks, p<0.0001): significantly lower; Number of grooming episodes vs controls (Sprague-Dewley rats; haloperidol for 24 weeks, p<0.17): did not differ

Q: For `CNC1(c2ccccc2Cl)CCCCC1=O` (stereo not shown) [ketamine], which “Motor effects of administration” value [1] is on record?
A: induces bradykinesia, dystonia and salivation
